Laboratory results reported in patent US20180079906A1, “AZACYANINE DYES AND USE THEREOF” (Ecole Polytechnique Fédérale de Lausanne (EPFL), priority 2016, published 2018).

How the values were obtained:
[1] = system: skin tissue of a nude mouse; test: Ex vivo cell death assay by cryogenic tissue damage (imaging necrosis); details: for fluorescence at the site of focal dry-ice treatment: cryogenic tissue damage, 1, 5, 10 uM dye, 10 min at room temperature
From the text: Ex vivo cell death assay for compounds, VI and XIV were studied using a method of cryogenic tissue damage. […] After gentle washing with PBS, the samples were scanned for fluorescence using an IVIS Spectrum imaging system (FIG. 18-19).

mastocytoma tumor = test: Fluorescence image-guided surgery of mastocytoma tumor in dogs; assay type: in vivo, dog
Experimental: A kuvasz dog (male, 30 kg) diagnosed with mastocvtoma tumor on his right leg was used for image guided surgery study. All canine studies were performed at Veterinair Verwijscentrum Gouda, Netherlands. Canine was injected intravenous catheterization into the cephalic vein with fluorescence probe XXI (180 nmol/kg) 6h prior to surgery. Canine underwent to general anesthesia prior to surgery. Image guided cancer surgery was performed using Solaris Open-air Fluorescence Imaging System (Perkin Elmer), equipped with four fluorescent channels (470 nm, 660 nm, 750 nm and 800 nm) to obtain real-time visualization of tumor imaging in ambient light (FIGS. 13-15).
A labrador dog (male, 33 kg) diagnosed with mastocytoma tumor on his nose was used for image guided surgery study. All canine studies were performed at Veterinair Verwijscentrum Gouda, Netherlands. Canine was injected intravenous catheterization into the cephalic vein with fluorescence probe XXI (92 nmol/kg) 10 h prior to surgery. Canine underwent to general anesthesia prior to surgery. Image guided cancer surgery was performed using Solaris Open-air Fluorescence Imaging System (Perkin Elmer), equipped with four fluorescent channels (470 nm, 660 nm, 750 nm and 800 nm) to obtain real-time visualization of tumor imaging in ambient light (FIGS. 16-17).

4T1-luc2 tumors = test: In vivo NIR fluorescence imaging of subcutaneous 4T1 tumors in nude mice
Experimental: Female nude mice 6-8 weeks of age were injected with […] of 4T1 cells in 100 ul of PBS subcutaneously into the right flank. Once the tumors reached approximately 0.5 cm^3 in size, animals were injected with 20 nmol of the imaging probe XXI intravenously in 100 ul of PBS. Mice were then imaged at different time points using IVIS Spectrum instrument (Perkin Elmer) at recommended settings 745/810 nm excitation/emission (FIGS. 11-12).

[2] = cited from earlier work
[3] = in methanol, calibration standard; cited from earlier work
[4] = 30 kg dog, 180 nmol/kg I.V., 6h after injection

CC1(C)C2=CC=CN(CCCCCC(=O)O)C2=N/C1=C/C=C1\C[N+](C)(C)CC(/C=C/C2=Nc3c(ccc[n+]3CCCCCC(=O)O)C2(C)C)=C1Cl [Dye VI]
fluorescence signal from viable cells ([1]; cryogenic tissue damage): no signal
fluorescence at the site of focal dry-ice treatment [1]: strong fluorescence signal

CC1(C)C2=CC=CN(CCCCCC(=O)O)C2=N/C1=C/C=C1\C[N+](C)(C)CC(/C=C/C2=Nc3c(ccc[n+]3CCCCCC(=O)O)C2(C)C)=C1Oc1ccc(S(=O)(=O)O)cc1.[Na+] [Dye XIV]
fluorescence at the site of focal dry-ice treatment [1]: strong accumulation of fluorescence

CC1(C)C2=CC=CN(CCCCCC(=O)NCCCC[C@@H]3NC(=O)[C@@H](Cc4ccccc4)NC(=O)[C@H](CC(=O)O)NC(=O)CNC(=O)[C@H](CCCNC(=N)N)NC3=O)C2=N/C1=C/C=C1\C[N+](C)(C)CC(/C=C/C2=Nc3c(ccc[n+]3CCCCCC(=O)NCCCC[C@H]3NC(=O)[C@H](Cc4ccccc4)NC(=O)[C@@H](CC(=O)O)NC(=O)CNC(=O)[C@@H](CCCNC(=N)N)NC3=O)C2(C)C)=C1Oc1ccc(S(=O)(=O)O)cc1.[Na+] [Dye XXI]
background uptake in normal tissue (mastocytoma tumor; [4]): negligible
identification of tumor by fluorescence in vivo (mastocytoma tumor; [4]): clearly identified
time post injection of highest accumulation in the tumor tissue (mastocytoma tumor; dogs): ≤ 6 h
time post injection of optimal background/noise ratio calculated from the region of interest (4T1-luc2 tumors; 4T1 tumour bearing mice): 2 h
tumor uptake (kinetics and specificity) (4T1-luc2 tumors; subcutaneous tumors in mice): faster and more specific tumor uptake
time post injection at which optimal background to noise ratio is achieved (4T1-luc2 tumors; subcutaneous tumors in mice, intravenous injection): 2 h

CC1(C)C(/C=C/C=C/C=C/C=C2\N(CCCCS(=O)(=O)O)c3ccc4ccccc4c3C2(C)C)=[N+](CCCCS(=O)(=O)[O-])c2ccc3ccccc3c21 [ICG, Indocyanine Green]
solubility in saline [2]: not readily soluble
fluorescence quantum yield (QY) [3]: 7.8%
